Measured values reported in patent US7683163B2, “Colchicoside analogues” (priority 2003, dated 2010).

Legend:
Swiss male mice = test: rota-rod test (muscle relaxant activity); assay type: in vivo; conditions: for Resistance time (sec. M ± S.E.): thirty minutes before the test
Protocol: Muscle relaxant activity was evaluated with the rota-rod test. Swiss male mice weighing 20-25 g were treated intraperitoneally with the β-D isomer of compound (Ib) at doses of 1-3-10 mg/kg, thirty minutes before the test. Relaxant activity on striated muscles was evaluated by testing the resistance of the mice to the stimuli of a rotating plane revolving at increasing rate, from 2 to 50 r.p.m.

[1] = acute toxicity (DL50 i.p.); conditions: for DL50/DE50: toxic/active dose ratio
[2] = rota-rod, mice, dose 1 mg/Kg i.p.
[3] = rota-rod, mice, dose 3 mg/Kg i.p.
[4] = rota-rod, mice, dose 10 mg/Kg i.p.
[5] = rota-rod, mice, i.p., Table 1, with limits in brackets

SMILES: COc1c(O[C@@H]2OC[C@@H](O)[C@H](O)[C@H]2O)cc2c(c1OC)-c1ccc(SC)c(=O)cc1C(NC(C)=O)CC2 (single isomer, unassigned) [Compound (Ib) isomer β-D, 3-O-β-D-xylopyranosyl-3-O-demethylthiocolchicine]
- DE50 (Swiss male mice; Table 2): 2.23 mg/kg i.p.
- muscle relaxant activity compared with thiocolchicoside (Swiss male mice; rota-rod, mice, 1-3-10 mg/kg i.p.): more active than thiocolchicoside
- Resistance time (sec. M ± S.E.) (Swiss male mice; [2]): 270 ± 19 s
- Resistance time (sec. M ± S.E.) (Swiss male mice; [3]): 175 ± 14 s
- Resistance time (sec. M ± S.E.) (Swiss male mice; [4]): 80 ± 10 s
- DE50 (Swiss male mice; [5]): 2.23 (1.84-2.82) mg/Kg
- DL50 ([1]; Table 2): 80 mg/kg i.p.
- DL50 ([1]; i.p.): 80 (63-94) mg/kg
- DL50/DE50 ([1]; i.p.): 35.87

SMILES: COc1c(O[C@@H]2O[C@H](CO)[C@@H](O)[C@H](O)[C@H]2O)cc2c(c1OC)-c1ccc(SC)c(=O)cc1[C@@H](NC(C)=O)CC2 [Thiocolchicoside isomer β-D, 3-demethyl-thiocolchicine glucoside, reference compound]
- DE50 (Swiss male mice; Table 2): 4.47 mg/kg i.p.
- Resistance time (sec. M ± S.E.) (Swiss male mice; [2]): 345 ± 20 s
- Resistance time (sec. M ± S.E.) (Swiss male mice; [3]): 265 ± 17 s
- Resistance time (sec. M ± S.E.) (Swiss male mice; [4]): 110 ± 12 s
- DE50 (Swiss male mice; [5]): 4.47 (3.16-7.01) mg/Kg
- DL50 ([1]; Table 2): 20 mg/kg i.p.
- DL50 ([1]; i.p.): 20 mg/kg
- DL50/DE50 ([1]; i.p.): 4.47
